From patent US20210032257A1, “(E)-1-(4-(DIMETHYLAMINO)BUT-2-ENOYL)PYRROLIDIN-3-YL 4-((3-ISOPROPYL-5-METHYLPYRAZOLO[1,5-A]PYRIMIDIN-7-YL)AMINO)PIPERIDINE-1-CARBOXYLATE FOR INHIBITING CDK7” (Eli Lilly and Company, priority 2017, published 2021)

Tests used:
Experiment in all cases: Biomarker study proliferation (CellTiter-Glo)
Assay type in all cases: cell-based
[1] = system: A2058
Outline: (§1)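 Cell lines were chosen by ARID1A, KMT2C, KMT2D and/or RB1 status from COSMIC and cBioportal. Viability after 7 days of treatment was measured by CellTiter-Glo luminescence, with 5 μM staurosporine as the full-inhibition control.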

[2] = system: EBC1
Outline: as §1

[3] = system: HT1197
Outline: as §1

[4] = system: IGROV1
Outline: as §1

[5] = system: JHH4
Outline: as §1

[6] = system: KP4
Outline: as §1

[7] = system: MDAMB468
Outline: as §1

[8] = system: MDST8
Outline: as §1

[9] = system: MKN1
Outline: as §1

[10] = system: NCIH1299
Outline: as §1

[11] = system: NCIH520
Outline: as §1

[12] = system: Raw264.7
Outline: as §1

[13] = system: SNU1
Outline: as §1

[14] = system: SNU449
Outline: as §1

[15] = system: SW626
Outline: as §1

[16] = system: SW780
Outline: as §1

[17] = system: T98G
Outline: as §1

[18] = system: U87MG
Outline: as §1

Cc1cc(NC2CCN(C(=O)O[C@H]3CCN(C(=O)/C=C/CN(C)C)C3)CC2)n2ncc(C(C)C)c2n1 [Example 1, [(3S)-1-[(E)-4-(dimethylamino)but-2-enoyl]pyrrolidin-3-yl] 4-[(3-isopropyl-5-methyl-pyrazolo[1,5-a]pyrimidin-7-yl)amino]piperidine-1-carboxylate]
Anti-proliferation effect % Inh. ([1]; A2058, SKIN, 7 days): 97% | Anti-proliferation effect Outcome ([1]; A2058, SKIN, 7 days): Cytotoxic (cytotoxic (IC50<1 μM and % inhibition ≥70%)) | IC50 ([1]; Homo sapiens, A2058, 168 h, read-out: Anti-proliferation effect IC50): 30 nM | Anti-proliferation effect % Inh. ([2]; EBC1, LUNG, 7 days): 83% | Anti-proliferation effect Outcome ([2]; EBC1, LUNG, 7 days): Cytotoxic (cytotoxic (IC50<1 μM and % inhibition ≥70%)) | IC50 ([2]; Homo sapiens, EBC-1, 168 h, read-out: Anti-proliferation effect IC50): 47 nM | Anti-proliferation effect % Inh. ([3]; HT1197, URINARY, 7 days): 55% | Anti-proliferation effect Outcome ([3]; HT1197, URINARY, 7 days): Cytostatic (cytostatic (IC50<1 μM and % inhibition <70%)) | IC50 ([3]; Homo sapiens, HT1197, 168 h, read-out: Anti-proliferation effect IC50): 281 nM | IC50 ([4]; Homo sapiens, IGROV-1, 168 h, read-out: Anti-proliferation effect IC50): 72 nM | Anti-proliferation effect % Inh. ([4]; IGROV1, OVARY, 7 days): 70% | Anti-proliferation effect Outcome ([4]; IGROV1, OVARY, 7 days): Cytotoxic (cytotoxic (IC50<1 μM and % inhibition ≥70%)) | Anti-proliferation effect % Inh. ([5]; JHH4, LIVER, 7 days): 65% | Anti-proliferation effect Outcome ([5]; JHH4, LIVER, 7 days): Cytostatic (cytostatic (IC50<1 μM and % inhibition <70%)) | IC50 ([5]; JHH-4, 168 h, read-out: Anti-proliferation effect IC50): 166 nM | IC50 ([6]; Homo sapiens, KP-4, 168 h, read-out: Anti-proliferation effect IC50): 36 nM | Anti-proliferation effect % Inh. ([6]; KP4, PANCREAS, 7 days): 65% | Anti-proliferation effect Outcome ([6]; KP4, PANCREAS, 7 days): Cytostatic (cytostatic (IC50<1 μM and % inhibition <70%)) | IC50 ([7]; Homo sapiens, MDA-MB-468, 168 h, read-out: Anti-proliferation effect IC50): 8 nM | Anti-proliferation effect % Inh. ([7]; MDAMB468, BREAST, 7 days): 100% | Anti-proliferation effect Outcome ([7]; MDAMB468, BREAST, 7 days): Cytotoxic (cytotoxic (IC50<1 μM and % inhibition ≥70%)) | IC50 ([8]; MDST8, 168 h, read-out: Anti-proliferation effect IC50): 49 nM | Anti-proliferation effect % Inh. ([8]; MDST8, INTESTINE, 7 days): 88% | Anti-proliferation effect Outcome ([8]; MDST8, INTESTINE, 7 days): Cytotoxic (cytotoxic (IC50<1 μM and % inhibition ≥70%)) | IC50 ([9]; Homo sapiens, MKN-1, 168 h, read-out: Anti-proliferation effect IC50): 23 nM | Anti-proliferation effect % Inh. ([9]; MKN1, STOMACH, 7 days): 80% | Anti-proliferation effect Outcome ([9]; MKN1, STOMACH, 7 days): Cytotoxic (cytotoxic (IC50<1 μM and % inhibition ≥70%)) | IC50 ([10]; Homo sapiens, NCI-H1299, 168 h, read-out: Anti-proliferation effect IC50): 195 nM | Anti-proliferation effect % Inh. ([10]; NCIH1299, LUNG, 7 days): 44% | Anti-proliferation effect Outcome ([10]; NCIH1299, LUNG, 7 days): Cytostatic (cytostatic (IC50<1 μM and % inhibition <70%)) | IC50 ([11]; Homo sapiens, NCI-H520, 168 h, read-out: Anti-proliferation effect IC50): 82 nM | Anti-proliferation effect % Inh. ([11]; NCIH520, LUNG, 7 days): 77% | Anti-proliferation effect Outcome ([11]; NCIH520, LUNG, 7 days): Cytotoxic (cytotoxic (IC50<1 μM and % inhibition ≥70%)) | IC50 ([12]; Mus musculus, RAW264.7, 168 h, read-out: Anti-proliferation effect IC50): 355 nM | Anti-proliferation effect % Inh. ([12]; Raw264.7, 7 days): 62% | Anti-proliferation effect Outcome ([12]; Raw264.7, 7 days): Cytostatic (cytostatic (IC50<1 μM and % inhibition <70%)) | IC50 ([13]; Homo sapiens, SNU1, 168 h, read-out: Anti-proliferation effect IC50): 105 nM | Anti-proliferation effect % Inh. ([13]; SNU1, STOMACH, 7 days): 68% | Anti-proliferation effect Outcome ([13]; SNU1, STOMACH, 7 days): Cytostatic (cytostatic (IC50<1 μM and % inhibition <70%)) | IC50 ([14]; Homo sapiens, SNU-449, 168 h, read-out: Anti-proliferation effect IC50): 1520 nM | Anti-proliferation effect % Inh. ([14]; SNU449, LIVER, 7 days): 8% | Anti-proliferation effect Outcome ([14]; SNU449, LIVER, 7 days): Insensitive (insensitive (IC50≥1 μM)) | IC50 ([15]; Homo sapiens, SW626, 168 h, read-out: Anti-proliferation effect IC50): 1100 nM | Anti-proliferation effect % Inh. ([15]; SW626, 7 days): 39% | Anti-proliferation effect Outcome ([15]; SW626, 7 days): Insensitive (insensitive (IC50≥1 μM)) | IC50 ([16]; Homo sapiens, SW780, 168 h, read-out: Anti-proliferation effect IC50): 74 nM | Anti-proliferation effect % Inh. ([16]; SW780, URINARY, 7 days): 68% | Anti-proliferation effect Outcome ([16]; SW780, URINARY, 7 days): Cytostatic (cytostatic (IC50<1 μM and % inhibition <70%)) | Anti-proliferation effect % Inh. ([17]; CNS, 7 days): 44% | Anti-proliferation effect Outcome ([17]; CNS, 7 days): Insensitive (insensitive (IC50≥1 μM)) | IC50 ([17]; Homo sapiens, 168 h, read-out: Anti-proliferation effect IC50): 1370 nM | IC50 ([18]; Homo sapiens, U-87 MG, 168 h, read-out: Anti-proliferation effect IC50): 7360 nM | Anti-proliferation effect % Inh. ([18]; U87MG, CNS, 7 days): −5% | Anti-proliferation effect Outcome ([18]; U87MG, CNS, 7 days): Insensitive (insensitive (IC50≥1 μM))
